Test results from patent US20230233569A1 (Revolution Medicines, Inc., priority 2020, published 2023).

Key:
AsPC-1 (K-Ras G12D) [1] = experiment: Potency assay: pERK; format: cell-based; settings: Homo sapiens, ASPC1, read-out: pERK EC50
AsPC-1 (K-Ras G12D) [2] = experiment: CellTiter-Glo cell viability assay; format: cell-based; settings: Homo sapiens, ASPC1, 120 h, read-out: AsPC-1 Cell Viability assay data IC50, K-Ras G12D, 5-day treatment
Description: Determination of Cell Viability in RAS Mutant Cancer Cell Lines
Protocol: CellTiter-Glo® Cell Viability Assay
Note—The following protocol describes a procedure for monitoring cell viability of K-Ras mutant cancer cell lines in response to a compound of the invention. Other RAS isoforms may be employed, though the number of cells to be seeded will vary based on cell line used.
Test compounds (132.5 nL) were directly dispensed into the assay plates containing cells. […] On day 5, assay plates and their contents were equilibrated to room temperature for approximately 30 minutes. […] Luminescence was measured using the PerkinElmer Enspire. Data were normalized by the following: (Sample signal/Avg. DMSO)*100. The data were fit using a four-parameter logistic fit.

KRAS G12D = KRAS G12D (Homo sapiens, UniProt P01116+P62937, G12D); experiment: Ras-Raf disruption / FRET / MOA assay (BRAF RBD); format: biochemical; settings: KRAS G12D FRET data IC50, Ras-Raf disruption, with Cyclophilin A
Chain of KRAS G12D (P01116 1-169 isoform P01116-2 G12D limits assumed): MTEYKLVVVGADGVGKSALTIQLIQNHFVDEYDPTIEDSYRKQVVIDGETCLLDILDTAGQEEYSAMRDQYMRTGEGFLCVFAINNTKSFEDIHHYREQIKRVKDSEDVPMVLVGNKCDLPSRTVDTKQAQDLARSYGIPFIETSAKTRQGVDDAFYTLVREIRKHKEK
Chain of KRAS G12D (P62937 whole entry): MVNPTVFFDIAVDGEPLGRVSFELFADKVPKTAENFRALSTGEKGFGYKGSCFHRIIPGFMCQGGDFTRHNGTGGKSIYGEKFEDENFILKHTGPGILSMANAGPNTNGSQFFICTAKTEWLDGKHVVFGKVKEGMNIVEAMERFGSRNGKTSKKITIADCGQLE
In short: (§1)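 TR-FRET in 25 mM HEPES pH 7.3, 100 mM NaCl, 5 mM MgCl2, 0.1% BSA, 0.002% Tween20 with 25 μM Cyclophilin A, 12.5 nM His6-Ras-GMPPNP, 50 nM GST-BRAF RBD; compound 10-point 3-fold series from 30 μM. After 3 h at 25 °C, Eu anti-His/APC anti-GST added for 1.5 h; IC50 from ratio decrease versus DMSO.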

KRAS G12S = KRAS G12S (Homo sapiens, UniProt P01116+P62937, G12S); experiment: Ras-Raf disruption / FRET / MOA assay (BRAF RBD); format: biochemical; settings: KRAS G12S FRET data IC50, Ras-Raf disruption, with Cyclophilin A
Chain of KRAS G12S (P01116 1-169 isoform P01116-2 G12S limits assumed): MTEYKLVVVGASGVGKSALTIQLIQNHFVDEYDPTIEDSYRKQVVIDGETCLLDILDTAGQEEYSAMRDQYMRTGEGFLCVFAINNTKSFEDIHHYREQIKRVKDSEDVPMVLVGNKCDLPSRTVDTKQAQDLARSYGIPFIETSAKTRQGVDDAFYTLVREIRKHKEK
Chain of KRAS G12S (P62937 whole entry): as the sequence (P62937 whole entry) above
In short: as §1

KRAS G12V = KRAS G12V (Homo sapiens, UniProt P01116+P62937, G12V); experiment: Ras-Raf disruption / FRET / MOA assay (BRAF RBD); format: biochemical; settings: KRAS G12V FRET data IC50, Ras-Raf disruption, with Cyclophilin A
Chain of KRAS G12V (P01116 1-169 isoform P01116-2 G12V limits assumed): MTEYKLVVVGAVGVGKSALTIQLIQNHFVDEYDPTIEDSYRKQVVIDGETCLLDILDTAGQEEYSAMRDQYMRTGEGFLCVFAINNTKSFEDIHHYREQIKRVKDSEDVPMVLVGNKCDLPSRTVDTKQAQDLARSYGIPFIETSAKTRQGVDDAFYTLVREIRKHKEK
Chain of KRAS G12V (P62937 whole entry): as the sequence (P62937 whole entry) above
In short: as §1

KRAS G13C = KRAS G13C (Homo sapiens, UniProt P01116+P62937, G13C); experiment: Ras-Raf disruption / FRET / MOA assay (BRAF RBD); format: biochemical; settings: KRAS G13C FRET data IC50, Ras-Raf disruption, with Cyclophilin A
Chain of KRAS G13C (P01116 1-169 isoform P01116-2 G13C limits assumed): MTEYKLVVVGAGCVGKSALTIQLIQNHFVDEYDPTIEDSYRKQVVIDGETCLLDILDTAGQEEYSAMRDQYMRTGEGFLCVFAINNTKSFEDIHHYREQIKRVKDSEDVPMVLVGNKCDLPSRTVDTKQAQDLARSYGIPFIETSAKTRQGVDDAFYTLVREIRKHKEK
Chain of KRAS G13C (P62937 whole entry): as the sequence (P62937 whole entry) above
In short: as §1

KRAS G13D = KRAS G13D (Homo sapiens, UniProt P01116+P62937, G13D); experiment: Ras-Raf disruption / FRET / MOA assay (BRAF RBD); format: biochemical; settings: KRAS G13D FRET data IC50, Ras-Raf disruption, with Cyclophilin A
Chain of KRAS G13D (P01116 1-169 isoform P01116-2 G13D limits assumed): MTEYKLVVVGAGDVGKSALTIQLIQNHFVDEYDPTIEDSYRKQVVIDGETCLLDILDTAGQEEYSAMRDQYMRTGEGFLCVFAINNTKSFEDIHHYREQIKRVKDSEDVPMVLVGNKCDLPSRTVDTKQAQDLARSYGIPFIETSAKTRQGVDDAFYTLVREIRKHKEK
Chain of KRAS G13D (P62937 whole entry): as the sequence (P62937 whole entry) above
In short: as §1

KRAS Q61H = KRAS Q61H (Homo sapiens, UniProt P01116+P62937, Q61H); experiment: Ras-Raf disruption / FRET / MOA assay (BRAF RBD); format: biochemical
Chain of KRAS Q61H (P01116 1-169 isoform P01116-2 Q61H limits assumed): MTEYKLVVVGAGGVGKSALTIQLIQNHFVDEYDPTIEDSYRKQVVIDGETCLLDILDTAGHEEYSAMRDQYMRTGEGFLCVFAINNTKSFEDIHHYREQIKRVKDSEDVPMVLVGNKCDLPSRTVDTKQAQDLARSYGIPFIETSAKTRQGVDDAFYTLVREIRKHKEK
Chain of KRAS Q61H (P62937 whole entry): as the sequence (P62937 whole entry) above
In short: as §1

KRAS WT = KRAS WT (Homo sapiens, UniProt P01116+P62937); experiment: Ras-Raf disruption / FRET / MOA assay (BRAF RBD); format: biochemical; settings: KRAS WT FRET data IC50, Ras-Raf disruption, with Cyclophilin A
Chain of KRAS WT (P01116 1-169 isoform P01116-2 limits assumed): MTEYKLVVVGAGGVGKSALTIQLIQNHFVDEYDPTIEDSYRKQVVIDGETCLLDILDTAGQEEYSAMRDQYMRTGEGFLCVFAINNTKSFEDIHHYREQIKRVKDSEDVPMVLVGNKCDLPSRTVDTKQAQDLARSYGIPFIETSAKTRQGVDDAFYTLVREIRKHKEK
Chain of KRAS WT (P62937 whole entry): as the sequence (P62937 whole entry) above
In short: as §1

NRAS G12C = NRAS G12C (Homo sapiens, UniProt P01111+P62937, G12C); experiment: Ras-Raf disruption / FRET / MOA assay (BRAF RBD); format: biochemical; settings: NRAS G12C FRET data IC50, NRAS G12C
Chain of NRAS G12C (P01111 whole entry G12C): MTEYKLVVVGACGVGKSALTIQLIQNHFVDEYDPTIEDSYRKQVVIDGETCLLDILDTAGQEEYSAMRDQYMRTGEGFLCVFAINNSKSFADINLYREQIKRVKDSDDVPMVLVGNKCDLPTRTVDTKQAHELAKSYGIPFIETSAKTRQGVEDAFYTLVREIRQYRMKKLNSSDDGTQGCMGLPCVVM
Chain of NRAS G12C (P62937 whole entry): as the sequence (P62937 whole entry) above
In short: as §1

NRAS Q61K = NRAS Q61K (Homo sapiens, UniProt P01111+P62937, Q61K); experiment: Ras-Raf disruption / FRET / MOA assay (BRAF RBD); format: biochemical
Chain of NRAS Q61K (P01111 whole entry Q61K): as the sequence (P01111 whole entry G12C) above, with C12G, Q61K counted along it
Chain of NRAS Q61K (P62937 whole entry): as the sequence (P62937 whole entry) above
In short: as §1

NRAS Q61R = NRAS Q61R (Homo sapiens, UniProt P01111+P62937, Q61R); experiment: Ras-Raf disruption / FRET / MOA assay (BRAF RBD); format: biochemical
Chain of NRAS Q61R (P01111 whole entry Q61R): as the sequence (P01111 whole entry G12C) above, with C12G, Q61R counted along it
Chain of NRAS Q61R (P62937 whole entry): as the sequence (P62937 whole entry) above
In short: as §1

NRAS WT = NRAS WT (Homo sapiens, UniProt P01111+P62937); experiment: Ras-Raf disruption / FRET / MOA assay (BRAF RBD); format: biochemical
Chain of NRAS WT (P01111 whole entry): as the sequence (P01111 whole entry G12C) above, with C12G counted along it
Chain of NRAS WT (P62937 whole entry): as the sequence (P62937 whole entry) above
In short: as §1

KRAS G12C = KRAS G12C (Homo sapiens, UniProt P01116+P62937, G12C); experiment: Ras-Raf disruption / FRET / MOA assay (BRAF RBD); format: biochemical; settings: KRAS G12C FRET data IC50, Ras-Raf disruption, with Cyclophilin A
Chain of KRAS G12C (P01116 1-169 isoform P01116-2 G12C limits assumed): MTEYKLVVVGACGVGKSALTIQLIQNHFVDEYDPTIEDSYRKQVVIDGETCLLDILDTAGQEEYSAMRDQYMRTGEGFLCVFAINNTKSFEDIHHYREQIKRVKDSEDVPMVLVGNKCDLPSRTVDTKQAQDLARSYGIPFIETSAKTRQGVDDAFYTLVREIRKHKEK
Chain of KRAS G12C (P62937 whole entry): as the sequence (P62937 whole entry) above
In short: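 His6-K-Ras G12C-GMPPNP (12.5 nM), GST-BRAF RBD (50 nM) and tagless Cyclophilin A (25 μM) incubated 3 h at 25 °C with compound (10-point 3-fold series from 30 μM), pH 7.3 HEPES buffer. Anti-His Eu/anti-GST APC added for 1.5 h; decreased TR-FRET ratio vs DMSO gives IC50.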

Row | Structure (SMILES) | EC50 (AsPC-1 (K-Ras G12D) [1]) | IC50 (AsPC-1 (K-Ras G12D) [2]) | IC50 (KRAS G12D) | IC50 (KRAS G12S) | IC50 (KRAS G12V) | IC50 (KRAS G13C) | IC50 (KRAS G13D) | IC50 (KRAS Q61H) | IC50 (KRAS WT) | IC50 (NRAS G12C) | IC50 (NRAS Q61K) | IC50 (NRAS Q61R) | IC50 (NRAS WT) | IC50 (KRAS G12C)
1 | CCn1c(-c2cccnc2[C@H](C)OC)c2c3cc(ccc31)-c1cc(O)cc(c1)C[C@H](NC(=O)[C@H](C(C)C)N(C)C(=O)CN(C)C(=O)[C@H]1CN1CCCN1CCCC1=O)C(=O)N1CCC[C@H](N1)C(=O)OCC(C)(C)C2 (stereo partly drawn) [Example 268, (2R)—N-(2-(((2S)-1-(((6^3S,4S)-1^1-ethyl-2^5-hydroxy-1^2-(2-((S)-1-methoxyethyl)pyridin-3-yl)-10,10-dimethyl-5,7-dioxo-6^1,6^2,6^3,6^4,6^5,6^6-hexahydro-1^1H-8-oxa-1(5,3)-indola-6(1,3)-pyridazina-2(1,3)-benzenacycloundecaphane-4-yl)amino)-3-methyl-1-oxobutan-2-yl)(methyl)amino)-2-oxoethyl)-N-methyl-1-(3-(2-oxopyrrolidin-1-yl)propyl)aziridine-2-carboxamide] | < 5000 nM | 1000 to 10000 nM | 100 to 1000 nM | 10 to 100 nM | 10 to 100 nM | 10 to 100 nM | 100 to 1000 nM | 10 to 100 nM | 10 to 100 nM | < 10 nM | 100 to 1000 nM | 100 to 1000 nM | 10 to 100 nM | < 10 nM
2 | CCn1c(-c2cccnc2[C@H](C)OC)c2c3cc(ccc31)-c1cc(O)cc(c1)C[C@H](NC(=O)[C@H](C(C)C)N(C)C(=O)CN(C)C(=O)[C@@H]1CN1CCCN1CCCC1=O)C(=O)N1CCC[C@H](N1)C(=O)OCC(C)(C)C2 (stereo partly shown) [Example 269] | < 5000 nM | 1000 to 10000 nM | 10 to 100 nM | 10 to 100 nM | 10 to 100 nM | 10 to 100 nM | 100 to 1000 nM | 10 to 100 nM | 10 to 100 nM | < 10 nM | 100 to 1000 nM | 100 to 1000 nM | 10 to 100 nM | < 10 nM
3 | CCn1c(-c2cccnc2[C@H](C)OC)c2c3cc(ccc31)-c1cc(O)cc(c1)C[C@H](NC(=O)[C@H](C(C)C)N(C)C(=O)CN(C)C(=O)[C@@H]1CN1CC(=O)N(C)C)C(=O)N1CCC[C@H](N1)C(=O)OCC(C)(C)C2 (stereo partly shown) [Example 271] | < 5000 nM | > 10000 nM | 100 to 1000 nM | 10 to 100 nM | 100 to 1000 nM | 10 to 100 nM | 100 to 1000 nM | 10 to 100 nM | 10 to 100 nM | < 10 nM | 100 to 1000 nM | 100 to 1000 nM | 100 to 1000 nM | < 10 nM
4 | CCn1c(-c2cccnc2[C@H](C)OC)c2c3cc(ccc31)-c1cc(O)cc(c1)C[C@H](NC(=O)[C@H](C(C)C)N(C)C(=O)CN(C)C(=O)[C@H]1CN1CCCN1CCOC1=O)C(=O)N1CCC[C@H](N1)C(=O)OCC(C)(C)C2 (stereo partly shown) [Example 272] | < 5000 nM | 1000 to 10000 nM | 100 to 1000 nM | 10 to 100 nM | 10 to 100 nM | 10 to 100 nM | 100 to 1000 nM | 10 to 100 nM | 10 to 100 nM | < 10 nM | 100 to 1000 nM | 100 to 1000 nM | 10 to 100 nM | < 10 nM
5 | CCn1c(-c2cccnc2[C@H](C)OC)c2c3cc(ccc31)-c1cc(O)cc(c1)C[C@H](NC(=O)[C@H](C(C)C)N(C)C(=O)CN(C)C(=O)[C@H]1CN1C1COC1)C(=O)N1CCC[C@H](N1)C(=O)OCC(C)(C)C2 (stereo partly shown) [Example 275] | < 5000 nM | 1000 to 10000 nM | 100 to 1000 nM | 10 to 100 nM | 100 to 1000 nM | 10 to 100 nM | 100 to 1000 nM | 10 to 100 nM | 100 to 1000 nM | 10 to 100 nM | 100 to 1000 nM | 100 to 1000 nM | 100 to 1000 nM | 10 to 100 nM
6 | CCn1c(-c2cccnc2[C@H](C)OC)c2c3cc(ccc31)-c1cc(O)cc(c1)C[C@H](NC(=O)[C@H](C(C)C)N(C)C(=O)CN(C)C(=O)[C@@H]1CN1CC1COC1)C(=O)N1CCC[C@H](N1)C(=O)OCC(C)(C)C2 (stereo partly shown) [Example 278] | < 5000 nM | 1000 to 10000 nM | 10 to 100 nM | 10 to 100 nM | 10 to 100 nM | 10 to 100 nM | 100 to 1000 nM | 10 to 100 nM | 10 to 100 nM | < 10 nM | 100 to 1000 nM | 100 to 1000 nM | 10 to 100 nM | 10 to 100 nM
7 | CCn1c(-c2cccnc2[C@H](C)OC)c2c3cc(ccc31)-c1cc(O)cc(c1)C[C@H](NC(=O)[C@H](C(C)C)N(C)C(=O)CN(C)C(=O)[C@@H]1N[C@@H]1C1COC1)C(=O)N1CCC[C@H](N1)C(=O)OCC(C)(C)C2 [Example 281] | < 5000 nM | 100 to 1000 nM | 10 to 100 nM | < 10 nM | 10 to 100 nM | 10 to 100 nM | 10 to 100 nM | < 10 nM | 10 to 100 nM | < 10 nM | 10 to 100 nM | 100 to 1000 nM | 10 to 100 nM | < 10 nM
8 | CCn1c(-c2cccnc2[C@H](C)OC)c2c3cc(ccc31)-c1cc(O)cc(c1)C[C@H](NC(=O)[C@H](C(C)C)N(C)C(=O)CN(C)C(=O)[C@H]1N[C@H]1C1COC1)C(=O)N1CCC[C@H](N1)C(=O)OCC(C)(C)C2 [Example 282] | < 5000 nM | 1000 to 10000 nM | 10 to 100 nM | 10 to 100 nM | 10 to 100 nM | < 10 nM | 10 to 100 nM | 10 to 100 nM | 10 to 100 nM | 10 to 100 nM | 100 to 1000 nM | 100 to 1000 nM | 10 to 100 nM | 10 to 100 nM
